{
  "source": "patent US20130089601A1",
  "about": "“METHOD FOR TREATING ATHEROSCLEROSIS” (KAOHSIUNG MEDICAL UNIVERSITY, priority 2009, published 2013)",
  "key": {"[1]": {"system": "THP-1 cells adherent to HUVEC", "experiment": "In vitro adhesion assay of THP-1 cells to HUVEC co-cultured with transfected HASMCs", "assay_type": "cell-based, human", "conditions": "in the presence of ox-LDL, vs NC-miR", "from_the_text": "MicroRNA-195 mimic, microRNA-195 inhibitor and negative control microRNA (NC-miR) were purchased from Ambion Inc. (TX, USA) with the sequences information shown as microRNA-195 mimic, 5′-[…]-3′ (SEQ ID NO: 5); microRNA-195 inhibitor, 5′-[…]-3′ (SEQ ID NO: 6); negative control sequence, 5′-AGUACUGCUUACGAUACGG-3′ (SEQ ID NO: 7). MicroRNA -195 inhibitor was used to specifically bind to and inhibit endogenous microRNA-195. The NC-miR is a random sequence pre-miR molecule that has been extensively tested in human cell lines and tissues and validated to produce no identifiable effects on known miRNA function. […]\nAt first, human aorta smooth muscle cells (HASMCs) were seeded on the inner side of Millicell® with the PET membrane (Millipore, Hanging 24-well cell culture inserts) at a density of 3×10^5 cells/cm^2 and transfected with microRNA-195 mimic mimic by using lipofectamine2000 for 24 hours. […] Then 4 ml of new culture medium was put in each dish and they were incubated overnight at 37° C. in 5% CO2 and 95% air humidified atmosphere to get ready for use in adhesion experiments of THP-1 cells.\nTo visualize the THP-1 cells adherent to the HUVEC-HASMC co-culture, the THP-1 cells were labeled with a fluorescent dye, calcein-AM. Fluorescence-labeled cells were resuspended in 4 ml of IMDM containing 10% FCS and prepared for use in adhesion experiments. […]"}, "[2]": {"system": "vascular smooth muscle cells (VSMC)", "experiment": "WST-1 cell proliferation assay of VSMC stimulated with ox-LDL", "assay_type": "cell-based, human", "conditions": "ox-LDL 40 μg/ml, 24 hours", "procedure": "The experiments were conducted in the primary aortic smooth muscle cells (purchased as cryopreserved tertiary cultures from Cascade Biologics, OR, USA) at passages 4 to 8. The VSMC cells were maintained in an M231 culture medium supplemented with fetal bovine serum (FBS, 5%), human epidermal growth factor (10 ng/ml), human basic fibroblast growth factor (3 ng/ml), insulin ([…]), penicillin (100 units/ml), streptomycin ([…]), and Fungizone ([…]). The cultures were kept at a temperature of 37° C. in an atmosphere of 5% CO2 in air.\nThe transfection was performed using a siPort NeoFx reagent (Ambion) and VSMC cell proliferation and migration were evaluated 24 hours after the microRNA-195 transfection. In addition, simvastatin was used, a widely used lipid lowering drug and anti-atherosclerosis drug, to test the influence of microRNA-195 levels by simvastatin.\nVSMC is an established model for atherosclerosis studies and when atherosclerosis incursion VSMC proliferation increases. A VSMC proliferation rate was used as a surrogate for the development of atherosclerosis, which was assessed by WST-1. By using a 1-3 μL siPort NeoFx (Ambion) reagent, 0-120 nM of microRNA-195 (Pre-miR™ miRNA, hsa-miR-195 (product ID PM10827), Ambion Inc.) was transfected into the VSMC cells while they were incubated with ox-LDL (40 μg/ml) for 24 hours. […] The microplates were then read by a spectrophotometer by measuring the absorbance of a dye with a wavelength of 450 nm and a reference wavelength of 600 nm (Benchmark PLUS Microplate Spectrophotometer, Bio-Rad) and plotted. […]\nCell proliferation of the VSMC was evaluated following incubation in ox-LDL (40 μg/ml) for 24 hours in the presence of microRNA-195 (Pre-miR miRNA, hsa-miR-195 (product ID PM10827), Ambion Inc.) (100 nM), simvastatin (1 nM) or Panax Notoginseng (in a form of water extract with concentration of 1 mg/ml; Chuang Song Zong Pharmaceutical co. Ltd), or in the presence of microRNA-195 (100 nM) with simvastatin (1 nM) or with Panax Notoginseng (in a form of water extract with concentration of 1 mg/ml). […]"}},
  "data": [
    {"substance": "microRNA-195: Pre-miR miRNA, hsa-miR-195 (product ID PM10827), Ambion Inc., which mimics precursor for mature human miR-195; mimic 5′-UAGCAGCACAGAAAUAUUGGC-3′ (SEQ ID NO: 5) (chemistry not given here)", "values": [
      {"measurement": "THP-1 cells adhering to HUVEC", "setting": "[1]", "value": "fewer"},
      {"measurement": "reduction of VSMC cell proliferation", "setting": "[2]; 30 nM transfected", "value": 21, "unit": "%"},
      {"measurement": "reduction of VSMC cell proliferation", "setting": "[2]; 60 nM transfected", "value": 29, "unit": "%"},
      {"measurement": "reduction of VSMC cell proliferation", "setting": "[2]; 120 nM transfected", "value": 45, "unit": "%"}
    ]}
  ]
}
